The values that follow come from ChEMBL document CHEMBL2396621, “Design, synthesis and biological evaluation of 2-mercapto-3-phenethylquinazoline bearing anilide fragments as potential antitumor agents: molecular docking study” (2013).

Holding throughout (format): functional
Assay [1] can be described thus: Cytotoxicity against human EKVX cells assessed as growth inhibition at 10 uM after 48 hrs by coulter counter analysis. The following applies: read-out: GI.
The next assay relates to Hs-578T. The assay is described as follows: Cytotoxicity against human Hs578T cells assessed as growth inhibition at 10 uM after 48 hrs by coulter counter analysis. The following applies: read-out: GI.
For a further assay, the system named is MDA-MB-231. The assay can be described thus: Cytotoxicity against human MDA-MB-231 cells assessed as growth inhibition at 10 uM after 48 hrs by coulter counter analysis. Particulars: MDA-MB-231, 48 h, read-out: GI.
The test system of the next assay is MCF7. The assay is described as follows: Cytotoxicity against human MCF7 cells assessed as growth inhibition at 10 uM after 48 hrs by coulter counter analysis. The following applies: MCF7, 48 h, read-out: GI.
A further assay concerns RXF 393. The assay is described as follows: Cytotoxicity against human RXF393 cells assessed as growth inhibition at 10 uM after 48 hrs by coulter counter analysis. The following applies: RXF 393, 48 h, read-out: GI.
The next assay has as its system CAKI-1. The assay can be described thus: Cytotoxicity against human Caki1 cells assessed as growth inhibition at 10 uM after 48 hrs by coulter counter analysis. Particulars: CAKI-1, 48 h, read-out: GI.
The subject of another assay is 786-0. The assay can be described thus: Cytotoxicity against human 786-0 cells assessed as growth inhibition at 10 uM after 48 hrs by coulter counter analysis. Particulars: 786-0, 48 h, read-out: GI.
For a further assay, the system named is OVCAR-8. The assay is described as follows: Cytotoxicity against human OVCAR8 cells assessed as growth inhibition at 10 uM after 48 hrs by coulter counter analysis. The following applies: OVCAR-8, 48 h, read-out: GI.
The next assay relates to OVCAR-5. The assay is described as follows: Cytotoxicity against human OVCAR5 cells assessed as growth inhibition at 10 uM after 48 hrs by coulter counter analysis. The following applies: OVCAR-5, 48 h, read-out: GI.
A further assay concerns UACC-62. The assay can be described thus: Cytotoxicity against human UACC62 cells assessed as growth inhibition at 10 uM after 48 hrs by coulter counter analysis. Particulars: UACC-62, 48 h, read-out: GI.
The test system of a further assay is SK-MEL-28. The assay can be described thus: Cytotoxicity against human SK-MEL-28 cells assessed as growth inhibition at 10 uM after 48 hrs by coulter counter analysis. The following applies: SK-MEL-28, 48 h, read-out: GI.
The test system of a further assay is M14. The assay is described as follows: Cytotoxicity against human M14 cells assessed as growth inhibition at 10 uM after 48 hrs by coulter counter analysis. The following applies: M14, 48 h, read-out: GI.
Another assay deals with Malme-3M. The assay can be described thus: Cytotoxicity against human MALME-3M cells assessed as growth inhibition at 10 uM after 48 hrs by coulter counter analysis. The following applies: read-out: GI.
The test system of another assay is U-251. The assay can be described thus: Cytotoxicity against human U251 cells assessed as growth inhibition at 10 uM after 48 hrs by coulter counter analysis. The following applies: U-251, 48 h, read-out: GI.
Another assay concerns HCT-116. The assay can be described thus: Cytotoxicity against human HCT116 cells assessed as growth inhibition at 10 uM after 48 hrs by coulter counter analysis. Particulars: HCT-116, 48 h, read-out: GI.
For another assay, the system named is MOLT-4. The assay is described as follows: Cytotoxicity against human MOLT4 cells assessed as growth inhibition at 10 uM after 48 hrs by coulter counter analysis. Particulars: MOLT-4, 48 h, read-out: GI.

Regarding `O=C(CSc1nc2ccccc2c(=O)n1CCc1ccccc1)Nc1ccc(Cl)cc1`, the inhibition of growth at 10 µM in assay [1] came out at 29%; with Hs-578T, 45%; in the assay on MDA-MB-231, 37%; in the assay on MCF7 it was 30%; in the assay on RXF 393, 22%; with CAKI-1 it was 42%. Moreover, the inhibition of growth at 10 µM in the assay on 786-0 is 13%; in the assay with OVCAR-8 it was 39%; with OVCAR-5, less than 10%; with UACC-62, 34%; in the assay on SK-MEL-28 it was 10%; in the assay with M14, less than 10%. The inhibition of growth at 10 µM with Malme-3M is less than 10%; in the assay with U-251, 25%; in the assay on HCT-116 it was 23%.

As to `COc1ccc(NC(=O)CSc2nc3ccccc3c(=O)n2CCc2ccccc2)cc1`, the inhibition of growth at 10 µM was 25% in assay [1]; 49% in the assay on Hs-578T; 39% with MDA-MB-231; 11% with MCF7; 21% with RXF 393; 13% in the assay with CAKI-1. Further, the inhibition of growth at 10 µM in the assay on 786-0 was less than 10%; with OVCAR-8 it was 40%; in the assay with OVCAR-5, less than 10%; with UACC-62 it was 13%; with SK-MEL-28, 11%; in the assay on M14 it was 25%. Also, the inhibition of growth at 10 µM in the assay with Malme-3M is 40%; with U-251 it was 29%; with HCT-116 it was 13%.

Regarding `CCOc1ccc(NC(=O)CSc2nc3ccccc3c(=O)n2CCc2ccccc2)cc1`, the inhibition of growth at 10 µM in assay [1] was 19%; in the assay on MOLT-4, 10%; in the assay on Hs-578T, less than 10%; in the assay with MDA-MB-231, 25%; in the assay with MCF7 it was 12%; with RXF 393 it was 13%. Besides, the inhibition of growth at 10 µM is 12% with CAKI-1; less than 10% in the assay with 786-0; 29% in the assay on OVCAR-8; less than 10% with OVCAR-5; less than 10% in the assay on UACC-62; less than 10% in the assay on SK-MEL-28. Besides, the inhibition of growth at 10 µM turned out to be 10% in the assay on M14, 37% with Malme-3M, 27% in the assay on U-251 and 16% with HCT-116.

On to `CC(=O)c1ccc(NC(=O)CSc2nc3ccccc3c(=O)n2CCc2ccccc2)cc1`, for which the inhibition of growth at 10 µM in assay [1] is 29%; in the assay with Hs-578T it was 33%; in the assay on MDA-MB-231, 39%; with MCF7, 16%; in the assay with RXF 393 it was less than 10%; in the assay on CAKI-1, 16%. In addition, the inhibition of growth at 10 µM in the assay on 786-0 was less than 10%; in the assay on OVCAR-8, 42%; in the assay on OVCAR-5 it was 10%; in the assay on UACC-62, 28%; in the assay with SK-MEL-28 it was 23%; in the assay on M14, 21%. In addition, the inhibition of growth at 10 µM amounted to 13% with Malme-3M, 10% with U-251 and 37% in the assay on HCT-116.

Regarding `O=C(CSc1nc2ccccc2c(=O)n1CCc1ccccc1)NCc1ccccc1`, the inhibition of growth at 10 µM in assay [1] worked out at 25%; in the assay with Hs-578T, 37%; in the assay with MDA-MB-231 it was 37%; with MCF7, 21%; with RXF 393 it was 16%; with CAKI-1, 32%. Besides, the inhibition of growth at 10 µM in the assay with 786-0 is 15%; in the assay on OVCAR-8, 40%; with OVCAR-5, less than 10%; in the assay with UACC-62 it was 29%; in the assay on SK-MEL-28, 12%; in the assay on M14 it was 14%. Moreover, the inhibition of growth at 10 µM was found to be 14% in the assay on Malme-3M, 24% in the assay with U-251 and 27% with HCT-116.

As for `CCOC(=O)c1ccc(NC(=O)CSc2nc3ccccc3c(=O)n2CCc2ccccc2)cc1`, the inhibition of growth at 10 µM in assay [1] was found to be 34%; in the assay with Hs-578T it was 33%; in the assay on MDA-MB-231, 48%; with MCF7, 12%; in the assay on RXF 393, 14%; with CAKI-1 it was 19%. In addition, the inhibition of growth at 10 µM was less than 10% in the assay with 786-0; 37% in the assay with OVCAR-8; 15% with OVCAR-5; 29% with UACC-62; 14% in the assay with SK-MEL-28; 21% with M14. For the same molecule, the results for the inhibition of growth at 10 µM in the assay with Malme-3M, with U-251 and with HCT-116 were 23%, 28% and 14%, respectively.

With `O=C(CSc1nc2ccccc2c(=O)n1CCc1ccccc1)Nc1ccccc1C(=O)O`, the inhibition of growth at 10 µM in assay [1] is 25%; with Hs-578T, 45%; in the assay on MDA-MB-231, 45%; with MCF7, 21%; with RXF 393, 25%; with CAKI-1, less than 10%. The inhibition of growth at 10 µM in the assay on 786-0 was 16%; with OVCAR-8 it was 61%; in the assay on OVCAR-5, less than 10%; with UACC-62 it was 21%; in the assay on SK-MEL-28, 17%; in the assay with M14 it was 12%. The inhibition of growth at 10 µM in the assay on Malme-3M is 18%; with HCT-116, 45%.

As for `O=C(CSc1nc2ccccc2c(=O)n1CCc1ccccc1)Nc1cc(Cl)ccc1C(=O)O`, the inhibition of growth at 10 µM in [1] was 20%; in the assay with Hs-578T, less than 10%; in the assay on MDA-MB-231 it was less than 10%; in the assay on MCF7 it was less than 10%; in the assay on RXF 393 it was less than 10%; in the assay on CAKI-1, 17%. Besides, the inhibition of growth at 10 µM with 786-0, with OVCAR-8, in the assay on OVCAR-5, in the assay on UACC-62, with SK-MEL-28 and with M14 was less than 10% in each case. The inhibition of growth at 10 µM in the assay with Malme-3M, in the assay on U-251 and with HCT-116 was less than 10% in each case.

`O=C(CSc1nc2ccccc2c(=O)n1CCc1ccccc1)Oc1ccc(Cl)cc1`: the inhibition of growth at 10 µM is 28% in [1]; 41% in the assay on Hs-578T; 33% in the assay on MDA-MB-231; 34% with MCF7; less than 10% with RXF 393; 27% in the assay on CAKI-1. Further, the inhibition of growth at 10 µM is less than 10% with 786-0; less than 10% with OVCAR-8; less than 10% in the assay with OVCAR-5; 11% in the assay on UACC-62; less than 10% with SK-MEL-28; less than 10% in the assay with M14. The inhibition of growth at 10 µM in the assay with Malme-3M, in the assay on U-251 and in the assay on HCT-116 was less than 10% in each case.

In the case of `COc1cc(OC(=O)CSc2nc3ccccc3c(=O)n2CCc2ccccc2)cc(OC)c1OC`, the inhibition of growth at 10 µM in [1] was 36%; in the assay on Hs-578T, less than 10%; with MDA-MB-231, 20%; in the assay on MCF7, 34%; with RXF 393 it was less than 10%; in the assay on CAKI-1, 28%. Moreover, the inhibition of growth at 10 µM in the assay on 786-0 was less than 10%; in the assay on OVCAR-8, less than 10%; in the assay with OVCAR-5 it was less than 10%; in the assay with UACC-62, 23%; in the assay on SK-MEL-28, less than 10%; with M14, less than 10%. The inhibition of growth at 10 µM is less than 10% in the assay on Malme-3M, 26% in the assay on U-251 and 20% in the assay on HCT-116.
